Results as given in US5214046A, “Substituted aminoalkoxybenzene anti-fungicidal compositions and use” (Hoffmann-La Roche Inc., priority 1989, dated 1993).
pIC50: −log10 of the molar value. Structures can show the parent of a compound that is named as a salt. Where two headings read alike, the source gives them in different places.

Experiments:
[1] = molecular target: 2,3-epoxysqualene-lanosterol cyclase (Candida albicans, UniProt Q04782); assay: Inhibition of 2,3-epoxysqualene-lanosterol cyclase from Candida albicans (cell-free extract, 14C-squalene epoxide); format: biochemical; details: for IC50: C. albicans cell-free extract, pH 6.9, 30°, 1 hour, read-out: IC50 (converted)
Sequence of 2,3-epoxysqualene-lanosterol cyclase (Q04782 whole entry): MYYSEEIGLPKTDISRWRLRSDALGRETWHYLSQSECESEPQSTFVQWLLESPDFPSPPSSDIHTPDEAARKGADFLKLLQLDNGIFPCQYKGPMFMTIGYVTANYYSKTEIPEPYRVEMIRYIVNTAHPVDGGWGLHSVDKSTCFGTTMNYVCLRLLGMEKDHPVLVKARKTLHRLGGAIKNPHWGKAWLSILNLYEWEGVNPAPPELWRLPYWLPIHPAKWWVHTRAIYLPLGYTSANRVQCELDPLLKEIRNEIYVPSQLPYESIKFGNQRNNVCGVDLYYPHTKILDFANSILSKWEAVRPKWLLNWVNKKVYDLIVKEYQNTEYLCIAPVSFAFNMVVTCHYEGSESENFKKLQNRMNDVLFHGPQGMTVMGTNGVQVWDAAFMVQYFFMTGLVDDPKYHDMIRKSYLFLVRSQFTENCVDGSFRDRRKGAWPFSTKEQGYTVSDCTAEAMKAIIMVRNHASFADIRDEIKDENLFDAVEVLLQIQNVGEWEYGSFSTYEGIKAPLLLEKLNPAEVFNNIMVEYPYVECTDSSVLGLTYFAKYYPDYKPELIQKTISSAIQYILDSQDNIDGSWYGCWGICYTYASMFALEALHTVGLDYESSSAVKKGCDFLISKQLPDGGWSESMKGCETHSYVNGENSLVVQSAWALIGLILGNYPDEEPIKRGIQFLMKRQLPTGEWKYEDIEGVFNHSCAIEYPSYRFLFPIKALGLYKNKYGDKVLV

[2] = Acute toxicity in the case of subcutaneous administration to mice; details: mouse, in vivo, sc
Protocol: The IC50 values are determined graphically and are given in μg of test substance per ml. Table I contains IC50 values determined in the above test for representative members of the class of compound defined by formula I as well as data concerning the acute toxicity in the case of subcutaneous administration to mice (LD50 in mg/kg).

Candida albicans = assay: Agar dilution method, MIC alone and in combination with sterol biosynthesis inhibitors, FIC; format: cell-based; details: for MIC: Candida albicans, 48 h, alone, 37° C., 2 days

| Compound | pIC50 [1] | IC50 [1] [nM] | also measured |
| --- | --- | --- | --- |
| CN(C)CCCCOc1ccc(C(=O)c2ccccc2)cc1 [Compound 1, 4-[[4-(dimethylamino)butyl]oxy]benzophenone] | 5.54 |  | LD50 [2]: > 4000 mg/kg |
| CN(C)CCCCCOc1ccc(C(=O)c2ccccc2)cc1 [Compound 2, 4-[(5-(dimethylamino)pentyl)oxy]benzophenone] |  | 514 |  |
| CN(C)CCCCCCOc1ccc(C(=O)c2ccccc2)cc1 [Compound 3, 4-[(6-dimethylamino)hexyl)oxy]benzophenone hydrochloride] |  | 461 |  |
| CCN(CC)CCCCCCOc1cccc(C(=O)CCc2ccccc2)c1 [Compound 4, 3'-[[6-(diethylamino)hexyl]oxy]-3-phenypropiophenone] |  | 1570 |  |
| CN(C)CCCCCCOc1ccc(C(=O)/C=C/c2ccccc2)cc1 [Compound 5, (E)-4'-[[6-(dimethylamino)hexyl]oxy]-3-phenylacrylophenone] |  | 1710 |  |
| CN(C)CCCCCCOc1ccc(C(=O)Cc2ccccc2)cc1 [Compound 6] |  | 191 |  |
| CCN(CC)CCCCCCOc1ccc(C(=O)CCc2ccccc2)cc1 [Compound 7, 4'-[[6-(diethylamino)hexyl]oxy]-3-phenylpropiophenone] |  | 708 |  |
| CN(C)CCCCCCOc1ccc(C(=O)CCc2ccccc2)cc1 [Compound 8, 4'-[[6-(dimethylamino)hexyl]oxy]-3-phenylpropiophenone] |  | 990 |  |
| CCN(CC)CCCCCCOc1ccc(C(=O)c2ccccc2)cc1 [Compound 9, 4'-[[6-(diethylamino)hexyl]oxy]benzophenone] |  | 1020 |  |
| CN(C)CCCCCCOc1cccc(C(=O)/C=C/c2ccccc2)c1 [Compound 10, (E)-3'-[[6-(dimethylamino)hexyl]oxy]-3-phenylacrylophenone] |  | 6540 |  |
| CN(C)CCCCCCOc1cccc(C(=O)CCc2ccccc2)c1 [Compound 11] |  | 2830 |  |
| CN(C)CCCCCCOc1ccc(C(=O)c2ccc(F)cc2)cc1 [Compound 12, 4-[[6-(dimethylamino)hexyl]oxy]-4'-fluorobenzophenone] |  | 524 |  |
| CN(C)CCCCCCOc1cccc(C(=O)c2ccccc2)c1 [Compound 13, 3-[(6-(dimethylamino)hexyl)oxy]benzophenone] |  | 6150 |  |
| CCN(CC)CCCCCCOc1ccc(C(=O)C#Cc2ccccc2)cc1 [Compound 14, 4'-[[6-(diethylamino)hexyl]oxy]-3-phenylpropiolophenone] |  | 8210 |  |
| CN(C)CCCCCCOc1ccc(C(=O)c2c(F)c(F)c(F)c(F)c2F)cc1 [Compound 15, 4'-[[6-(dimethylamino)hexyl]oxy]-2,3,4,5,6-pentafluorobenzophenone] |  | 2140 |  |
| CCCN(CCC)CCCCCCOc1ccc(C(=O)c2ccccc2)cc1 [Compound 16, 4-[[6-(dipropylamino)hexyl]oxy]benzophenone] |  | 2410 |  |
| O=C(c1ccccc1)c1ccc(OCCCCCCN2CCC2)cc1 [Compound 17, 4-[(6-(azetidinyl)hexyl)oxy]benzophenone] | 5.75 |  |  |
| CN(C)CCCCCCCOc1ccc(C(=O)c2ccccc2)cc1 [Compound 18, 4-[[7-(dimethylamino)heptyl]oxy]benzophenone] |  | 353 |  |
| CN(C)CCCCCCCCOc1ccc(C(=O)c2ccccc2)cc1 [Compound 19] |  | 1190 |  |
| CN(C)CCCCCCCCCOc1ccc(C(=O)c2ccccc2)cc1 [Compound 20, 4-[[9-(dimethylamino)nonyl]oxy]benzophenone] |  | 4350 |  |
| CN(C)CCCCCCCCCCOc1ccc(C(=O)c2ccccc2)cc1 [Compound 21, 4-[[10-(dimethylamino)decyl]oxy]benzophenone] |  | 5240 |  |
| O=C(c1ccccc1)c1ccc(OCCCCCCN2CCCC2)cc1 [Compound 22, 4-[(6-(pyrrolidino)hexyl)oxy]benzophenone] |  | 967 |  |
| CN(C)CCCCCCOc1ccc(CC(=O)c2ccccc2)cc1 [Compound 23, 2-[4-[[6-(dimethylamino)hexyl]oxy]phenyl]acetophenone] |  | 560 |  |

| Compound | pIC50 [1] | IC50 [1] [nM] | also measured |
| --- | --- | --- | --- |
| CNCCCCCCOc1ccc(C(=O)c2ccccc2)cc1 [Compound 24, 4-[[6-(methylamino)hexyl]oxy]benzophenone] |  | 963 |  |
| Cc1cc(C(=O)c2ccccc2)ccc1OCCCCCCN(C)C [Compound 25, 4-[[6-(dimethylamino)hexyl]oxy]-3-methylbenzophenone] |  | 560 |  |
| Cc1cccc(C(=O)c2ccc(OCCCCCCN(C)C)cc2)c1C [Compound 26, 4-[[6-(dimethylamino)hexyl]oxy]-2',3'-dimethylbenzophenone] |  | 1190 |  |
| CN(C)CCCCCCOc1ccc(C(=O)c2ccc(Cl)cc2Cl)cc1 [Compound 27, 4-[[6-(dimethylamino)hexyl]oxy]-2',4'-dichlorobenzophenone] |  | 659 |  |
| CN(C)CCCCCCOc1ccc(C(=O)c2cc(Cl)cc(Cl)c2)cc1 [Compound 28, 4-[[6-(dimethylamino)hexyl]oxy]-3',5'-dichlorobenzophenone] |  | 3800 |  |
| CN(C)CCCCCCOc1ccc(C(=O)c2ccc([N+](=O)[O-])cc2)cc1 [Compound 29, 4-[[6-(dimethylamino)hexyl]oxy]-4'-nitrobenzophenone] |  | 756 |  |
| CN(C)CCCCCCOc1ccc(C(=O)c2ccc(Cl)cc2Cl)cc1Cl [Compound 30, 4-[[6-(dimethylamino)hexyl]oxy]-2',3,4'-trichlorobenzophenone] |  | 233 |  |
| C=CCN(C)CCCCCCOc1ccc(C(=O)c2ccccc2)cc1 [Compound 31, 4-[[6-(allylmethylamino)hexyl]oxy]benzophenone] | 6.90 |  | LD50 [2]: 1000 to 2000 mg/kg |
| C=CCN(C)CCCCCCOc1ccc(C(=O)Cc2ccccc2)cc1 [Compound 32, 4-[[6-(allylmethylamino)hexyl]oxy]-2-phenylacetophenone] | 7.02 |  |  |
| C=CCN(C)CCCCCCOc1ccc(C(=O)c2ccc(F)cc2)cc1 [Compound 33, 4-[[6-(allylmethylamino)hexyl]oxy]-4'-fluorobenzophenone] | 7.08 |  |  |
| C=CCN(C)CCCCCCOc1ccc(C(=O)c2ccccc2)cc1C [Compound 34, 4-[[6-(allylmethylamino)hexyl]oxy]-3-methylbenzophenone] | 7.06 |  |  |
| C=CCN(C)CCCCCCOc1ccc(C(=O)c2cccc(C)c2C)cc1 [Compound 35, 4-[[6-(allylmethylamino)hexyl]oxy]-2',3'-dimethylbenzophenone] | 6.65 |  |  |
| C=CCN(C)CCCCCCOc1ccc(C(=O)c2ccc(Cl)cc2Cl)cc1 [Compound 36, 4-[[6-(allylmethylamino)hexyl]oxy]-2',4'-dichlorobenzophenone] | 6.88 |  |  |
| C=CCN(C)CCCCCCOc1ccc(C(=O)c2cc(Cl)cc(Cl)c2)cc1 [Compound 37, 4-[[6-(allylmethylamino)hexyl]oxy]-3',5'-dichlorobenzophenone] | 6.09 |  |  |
| C=CCN(C)CCCCCCOc1ccc(C(=O)c2ccc([N+](=O)[O-])cc2)cc1 [Compound 38, 4-[[6-(allylmethylamino)hexyl]oxy]-4'-nitrobenzophenone] | 7.00 |  |  |
| C=CCN(C)CCCCCCOc1ccc(C(=O)c2ccccc2)cc1Cl [Compound 39, 4-[[6-(allylmethylamino)hexyl]oxy]-3-chlorobenzophenone] | 7.19 |  |  |
| C=CCN(C)CCCCCCOc1ccc(C(=O)c2ccc(Cl)cc2Cl)cc1Cl [Compound 40, 4-[[6-(allylmethylamino)hexyl]oxy]-2',3,4'-trichlorobenzophenone] | 7.24 |  |  |
| C=CCN(C)C/C=C/COc1ccc(C(=O)c2ccccc2)cc1 [Compound 41, trans-4-[[4-(allylmethylamino)-2-butenyl]oxy]benzophenone] | 7.21 |  |  |
| C=CCN(C)C/C=C/COc1ccc(C(=O)c2ccc(Cl)cc2Cl)cc1 [Compound 42, trans-4-[[4-(allylmethylamino)-2-butenyl]oxy]-2',4'-dichlorobenzophenone] | 7.75 |  |  |
| CN(C)C/C=C/COc1ccc(C(=O)c2ccccc2)cc1 [Compound 43, trans-4-[[4-(dimethylamino)-2-butenyl]oxy]benzophenone] |  | 745 |  |
| CN(C)C/C=C/COc1ccc(C(=O)c2ccc(Cl)cc2Cl)cc1 [Compound 44, trans-4-[[4-(dimethylamino)-2-butenyl]oxy]-2',4'-dichlorobenzophenone] |  | 178 |  |
| CC(=O)N1CCN(c2ccc(OCC3COC(Cn4ccnc4)(c4ccc(Cl)cc4Cl)O3)cc2)CC1 (stereo not drawn) [Ketoconazole, reference compound] |  |  | MIC in combination (Candida albicans; C. albicans B4, Compound 6 + Ketoconazole in combination): 0.155 µg/mL; MIC in combination (Candida albicans; C. albicans B5, Compound 6 + Ketoconazole in combination): 0.31 µg/mL; MIC in combination (Candida albicans; C. albicans H12, Compound 6 + Ketoconazole in combination): 0.155 µg/mL; MIC in combination (Candida albicans; C. albicans H29, Compound 6 + Ketoconazole in combination): 0.03 µg/mL; MIC in combination (Candida albicans; C. albicans H42, Compound 6 + Ketoconazole in combination): 0.155 µg/mL; MIC (Candida albicans; C. albicans B4): 5 µg/mL; MIC (Candida albicans; C. albicans B5): 5 µg/mL; MIC (Candida albicans; C. albicans H12): 5 µg/mL; MIC (Candida albicans; C. albicans H29): 0.25 µg/mL; MIC (Candida albicans; C. albicans H42): 10 µg/mL |
| CN(C/C=C/C#CC(C)(C)C)Cc1cccc2ccccc12 [Terbinafin, reference compound] |  |  | MIC in combination (Candida albicans; C. albicans B4, Compound 6 + Terbinafin in combination): 0.55 µg/mL; MIC in combination (Candida albicans; C. albicans B5, Compound 6 + Terbinafin in combination): 0.75 µg/mL; MIC in combination (Candida albicans; C. albicans H12, Compound 6 + Terbinafin in combination): 6.25 µg/mL; MIC in combination (Candida albicans; C. albicans H29, Compound 6 + Terbinafin in combination): 1.55 µg/mL; MIC in combination (Candida albicans; C. albicans H42, Compound 6 + Terbinafin in combination): 6.25 µg/mL; MIC (Candida albicans; C. albicans B4): 12.5 µg/mL; MIC (Candida albicans; C. albicans B5): 6.25 µg/mL; MIC (Candida albicans; C. albicans H12): 100 µg/mL; MIC (Candida albicans; C. albicans H29): 6.25 µg/mL; MIC (Candida albicans; C. albicans H42): 100 µg/mL |
